Source: PubChem BioAssay (NCI)
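Cells were grown in 96-well plates and exposed to each compound for 48 hours at five concentrations; endpoints were interpolated linearly between bracketing concentrations, or set to the highest concentration if not reached. GI50 is the concentration that inhibits growth by half. At the TGI there is no net growth.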

Experiments:
Experiment in all cases: NCI-60 cell line screen, 48 h
[1] = system: CAKI-1 renal
[2] = system: T-47D breast
[3] = system: PC-3 prostate
[4] = system: SF-539 CNS
[5] = system: TK-10 renal
[6] = system: SK-OV-3 ovarian
[7] = system: HL-60(TB) leukemia
[8] = system: OVCAR-8 ovarian
[9] = system: HOP-62 NSCLC
[10] = system: SR leukemia
[11] = system: UACC-62 melanoma
[12] = system: RXF 393 renal
[13] = system: SK-MEL-2 melanoma
[14] = system: UO-31 renal
[15] = system: HCC-2998 colon
[16] = system: MOLT-4 leukemia
[17] = system: OVCAR-5 ovarian
[18] = system: SF-268 CNS
[19] = system: OVCAR-3 ovarian
[20] = system: A549 NSCLC
[21] = system: RPMI-8226 leukemia
[22] = system: SNB-19 CNS
[23] = system: SNB-75 CNS
[24] = system: HCT-15 colon
[25] = system: SF-295 CNS
[26] = system: K-562 leukemia
[27] = system: SN12C renal
[28] = system: NCI-H460 lung
[29] = system: COLO 205 colon
[30] = system: SK-MEL-5 melanoma
[31] = system: OVCAR-4 ovarian
[32] = system: BT-549 breast
[33] = system: HT29 colon
[34] = system: A498 renal
[35] = system: LOX IMVI melanoma
[36] = system: NCI-H226 lung
[37] = system: MDA-MB-231 breast
[38] = system: IGROV1 ovarian
[39] = system: HOP-92 NSCLC
[40] = system: U251 CNS
[41] = system: HCT-116 colon
[42] = system: MALME-3M melanoma
[43] = system: ACHN renal
[44] = system: M14 melanoma
[45] = system: SW-620 colon
[46] = system: CCRF-CEM leukemia
[47] = system: NCI/ADR-RES ovarian
[48] = system: DU-145 prostate
[49] = system: MCF7 breast
[50] = system: EKVX NSCLC
[51] = system: NCI-H23 lung
[52] = system: NCI-H522 lung
[53] = system: KM12 colon
[54] = system: SK-MEL-28 melanoma
[55] = system: HS 578T breast
[56] = system: 786-0 renal
[57] = system: UACC-257 melanoma

Compound: CCOC(=O)/C=C/C1=C(c2ccsc2)c2ccc(OC)cc2CC1
- GI50 [1]: 0.387 µM
- TGI [1]: > 100 µM
- GI50 [2]: 0.33 µM
- TGI [2]: > 100 µM
- GI50 [3]: 0.202 µM
- GI50 [4]: 0.388 µM
- TGI [4]: 6.13 µM
- GI50 [5]: 0.716 µM
- TGI [5]: > 100 µM
- GI50 [6]: 0.359 µM
- TGI [6]: > 85.6 µM
- GI50 [7]: 0.206 µM
- TGI [7]: 0.794 µM
- GI50 [8]: 0.661 µM
- TGI [8]: > 41.9 µM
- GI50 [9]: 0.599 µM
- TGI [9]: > 100 µM
- GI50 [10]: 0.156 µM
- TGI [10]: 6.37 µM
- GI50 [11]: 1.79 µM
- TGI [11]: 26.2 µM
- GI50 [12]: 0.235 µM
- TGI [12]: 5.02 µM
- GI50 [13]: 3.66 µM
- TGI [13]: > 24.7 µM
- GI50 [14]: 7.6 µM
- TGI [14]: > 100 µM
- GI50 [15]: 4.57 µM
- TGI [15]: 26.7 µM
- GI50 [16]: 0.512 µM
- TGI [16]: 12.9 µM
- GI50 [17]: 1.66 µM
- TGI [17]: > 100 µM
- GI50 [18]: 0.656 µM
- TGI [18]: 58.1 µM
- GI50 [19]: 0.205 µM
- TGI [19]: 0.686 µM
- GI50 [20]: 0.671 µM
- TGI [20]: > 100 µM
- GI50 [21]: 0.292 µM
- TGI [21]: 4.15 µM
- GI50 [22]: 0.357 µM
- TGI [22]: > 100 µM
- GI50 [23]: 0.263 µM
- TGI [23]: > 100 µM
- GI50 [24]: 0.222 µM
- TGI [24]: > 20.2 µM
- GI50 [25]: 0.349 µM
- TGI [25]: 20.6 µM
- GI50 [26]: 0.0592 µM
- TGI [26]: 12.5 µM
- GI50 [27]: 0.837 µM
- TGI [27]: > 23.9 µM
- GI50 [28]: 2.21 µM
- TGI [28]: 15.8 µM
- GI50 [29]: 0.213 µM
- TGI [29]: 1.36 µM
- GI50 [30]: 0.195 µM
- TGI [30]: 11.2 µM
- GI50 [31]: 2.33 µM
- TGI [31]: > 100 µM
- GI50 [32]: 0.787 µM
- TGI [32]: > 46.9 µM
- GI50 [33]: 0.275 µM
- TGI [33]: > 41.4 µM
- GI50 [34]: 0.512 µM
- TGI [34]: > 31.3 µM
- GI50 [35]: 0.61 µM
- TGI [35]: > 50.1 µM
- GI50 [36]: 0.769 µM
- TGI [36]: > 62.8 µM
- GI50 [37]: 0.924 µM
- TGI [37]: 19.7 µM
- GI50 [38]: 6.26 µM
- TGI [38]: > 100 µM
- GI50 [39]: 2.29 µM
- TGI [39]: > 55.4 µM
- GI50 [40]: 0.405 µM
- TGI [40]: > 100 µM
- GI50 [41]: 0.376 µM
- TGI [41]: > 39.4 µM
- GI50 [42]: 0.205 µM
- TGI [42]: > 100 µM
- GI50 [43]: 0.701 µM
- TGI [43]: > 52.7 µM
- GI50 [44]: 0.378 µM
- TGI [44]: > 100 µM
- GI50 [45]: 0.349 µM
- TGI [45]: > 100 µM
- GI50 [46]: 0.328 µM
- GI50 [47]: 0.285 µM
- GI50 [48]: 0.473 µM
- TGI [48]: > 36.5 µM
- GI50 [49]: 0.364 µM
- TGI [49]: 26.4 µM
- GI50 [50]: 6 µM
- TGI [50]: > 100 µM
- GI50 [51]: 0.525 µM
- TGI [51]: > 100 µM
- GI50 [52]: 0.26 µM
- TGI [52]: > 100 µM
- GI50 [53]: 0.169 µM
- TGI [53]: 15.4 µM
- GI50 [54]: 0.982 µM
- TGI [54]: > 49.8 µM
- GI50 [55]: 0.43 µM
- TGI [55]: > 38.7 µM
- GI50 [56]: 0.511 µM
- TGI [56]: 30.3 µM

Compound: C=CCn1c(SCC(=O)Nc2ccc(C(=O)/C=C/c3cc(OC)c(OC)c(OC)c3)cc2)nnc1-c1ccc(Cl)cc1
- GI50 [2]: 2.24 µM
- TGI [2]: 30.6 µM
- GI50 [3]: 3.2 µM
- TGI [3]: 26.4 µM
- GI50 [4]: 2.96 µM
- TGI [4]: 9.83 µM
- GI50 [5]: 7.87 µM
- TGI [5]: 61.3 µM
- GI50 [6]: 6.01 µM
- TGI [6]: 58.3 µM
- GI50 [7]: 2.65 µM
- TGI [7]: 11.3 µM
- GI50 [8]: 2.79 µM
- TGI [8]: 15 µM
- GI50 [9]: 3.76 µM
- TGI [9]: 23.8 µM
- GI50 [10]: 1.52 µM
- TGI [10]: 7.45 µM
- GI50 [11]: 2.94 µM
- TGI [11]: 25 µM
- GI50 [12]: 1.47 µM
- TGI [12]: 3.37 µM
- GI50 [13]: 4.52 µM
- TGI [13]: 36.6 µM
- GI50 [14]: 1.98 µM
- TGI [14]: 8.34 µM
- GI50 [15]: 2.36 µM
- TGI [15]: 5.67 µM
- GI50 [16]: 2.66 µM
- TGI [16]: 11.4 µM
- GI50 [17]: 4.75 µM
- TGI [17]: 67.7 µM
- GI50 [18]: 4.32 µM
- TGI [18]: > 100 µM
- GI50 [19]: 2.41 µM
- TGI [19]: 5.93 µM
- GI50 [20]: 3.61 µM
- TGI [20]: 17.3 µM
- GI50 [21]: 0.253 µM
- TGI [21]: 1.03 µM
- GI50 [22]: 3.64 µM
- TGI [22]: > 100 µM
- GI50 [23]: 1.79 µM
- TGI [23]: 12.8 µM
- GI50 [24]: 2.68 µM
- TGI [24]: 18.8 µM
- GI50 [25]: 4.49 µM
- TGI [25]: 48.8 µM
- GI50 [26]: 1.7 µM
- TGI [26]: 10.5 µM
- GI50 [27]: 3.43 µM
- TGI [27]: > 100 µM
- GI50 [28]: 3.41 µM
- TGI [28]: 13.5 µM
- GI50 [29]: 4.92 µM
- TGI [29]: 67.3 µM
- GI50 [30]: 2.53 µM
- TGI [30]: 14.3 µM
- GI50 [31]: 3.1 µM
- TGI [31]: 21 µM
- GI50 [32]: 2.4 µM
- TGI [32]: 7.79 µM
- GI50 [33]: 2.33 µM
- TGI [33]: 5.69 µM
- GI50 [34]: 2.47 µM
- TGI [34]: 10.6 µM
- GI50 [36]: 1.94 µM
- TGI [36]: 7.42 µM
- GI50 [37]: 3.08 µM
- TGI [37]: > 100 µM
- GI50 [38]: 2.76 µM
- TGI [38]: 13 µM
- GI50 [39]: 2.47 µM
- TGI [39]: 11.8 µM
- GI50 [40]: 1.73 µM
- TGI [40]: 4.38 µM
- GI50 [42]: 6.69 µM
- TGI [42]: 61.5 µM
- GI50 [43]: 3.67 µM
- TGI [43]: 22 µM
- GI50 [57]: 6.38 µM
- TGI [57]: 59.6 µM
- GI50 [45]: 3 µM
- TGI [45]: > 100 µM
- GI50 [46]: 2.38 µM
- TGI [46]: 13.3 µM
- GI50 [47]: 4.74 µM
- TGI [47]: > 100 µM
- GI50 [48]: 3.73 µM
- TGI [48]: 40.9 µM
- GI50 [49]: 0.38 µM
- TGI [49]: 11.2 µM
- GI50 [50]: 2.92 µM
- TGI [50]: 15.5 µM
- GI50 [51]: 2.7 µM
- TGI [51]: 10.5 µM
- GI50 [52]: 3.25 µM
- TGI [52]: 17.4 µM
- GI50 [53]: 1.97 µM
- TGI [53]: 5.23 µM
- GI50 [54]: 4.23 µM
- TGI [54]: 54.6 µM
- GI50 [55]: 5.81 µM
- TGI [55]: > 100 µM
- GI50 [56]: 2.16 µM
- TGI [56]: 5.59 µM
